In paper PMC9083330, “An Efficient Evaluation System Accelerates α-Helical Antimicrobial Peptide Discovery and Its Application to Global Human Genome Mining” (Frontiers in Microbiology, 2022):
In brackets after ≈: the same amount, converted by molar mass.

Tests used:
[1] = test system: multiple-resistant Staphylococcus aureus (MRSA186); experiment: MIC, broth microdilution; conditions: read-out: MIC, 2. multiple-resistant S. aureus (MRSA186)
[2] = test system: genomic DNA of E. coli (CMCC44103); experiment: Peptide and DNA binding assay (gel retardation); set-up: species or system Escherichia coli; conditions: 0.5–8 × MIC (1–16 μg/ml), 37°C, 30 min, approx. 400 ng DNA
Procedure: (§1) The gel retardation experiment was conducted according to the method described by [Kim et al. (2018)] for exploring the influence of AMPs on the bacterial genome. The bacterial genomic DNAs were extracted by using a Vazyme FastPure® Bacteria DNA Isolation Mini Kit (Nanjing Vazyme Biotech Co., Ltd., Nanjing, China). […] DNA treated with Penetratin (reported as cell-penetrating peptide) ([de Mello et al., 2019]) and DNA untreated with AMP were served as positive and negative control, respectively. The extent of DNA migration was measured by agarose gel electrophoresis using a gel imaging system (Beijing Sage Creation Science, Beijing, China).

[3] = test system: genomic DNA of E. coli (SYPB-3820); experiment: Peptide and DNA binding assay (gel retardation); set-up: species or system Escherichia coli; conditions: 0.5–8 × MIC (1–16 μg/ml), 37°C, 30 min, approx. 400 ng DNA
Procedure: as §1

[4] = test system: genomic DNA of S. aureus (CMCC26003); experiment: Peptide and DNA binding assay (gel retardation); set-up: species or system Staphylococcus aureus; conditions: 0.5–8 × MIC (1–16 μg/ml), 37°C, 30 min, approx. 400 ng DNA
Procedure: as §1

[5] = test system: Shigella dysenteriae (CMCC(B)51105); experiment: MIC, broth microdilution; format: cell-based; conditions: read-out: MIC, 9. S. dysenteriae (CMCC(B)51105)
[6] = test system: mouse skin wound infected with E. coli (CMCC44103); experiment: Mouse full-thickness skin wound infection and healing; format: in vivo, BALB/c mice
Procedure: (§2) Briefly, adult female BALB/c mice (18–22 g) were obtained from the Laboratory Animal Center of Shenyang Pharmaceutical University and performed in compliance with the guidelines of the Institutional Animal Care and Use Committee of Shenyang Pharmaceutical University. Each mouse was operated on an 8-mm in diameter round-shape wound under surgery conditions with an intraperitoneal injection of ketamine (90 mg/kg) and xylazine (10 mg/kg). The mice were randomly divided into 10 groups, including one normal group, three model groups, three treatment groups, and three positive groups (n = 10 in each group), then the wounds were infected with 40 μl (1 × 10^8 CFU/mL) of E. coli (CMCC44103) or drug-resistant E. coli (SYPB-3820) or S. aureus (CMCC26003), respectively, except for the normal group. Forty-eight hours later, the wounds of three model groups were treated with a sterile 0.85% saline solution. […] All the wounds were treated twice 1 day and observed every 24 h for 14 days. On days 1, 3, 5, 7, and 10, 100 mg of treated skin tissue was removed and homogenized in 0.9 ml of sterile 0.85% saline solution, then the samples were diluted and plated onto Luria-Bertani (LB) medium. After incubation at 37°C for 20 h, the CFUs were counted to represent the bacterial number in the wounds.

[7] = test system: mouse skin wound infected with S. aureus (CMCC26003); experiment: as above; format: in vivo, BALB/c mice
Procedure: as §2

[8] = test system: mouse skin wound infected with drug-resistant E. coli (SYPB-3820); experiment: as above; format: in vivo, BALB/c mice
Procedure: as §2

[9] = test system: Staphylococcus aureus (CMCC26003); experiment: MIC, broth microdilution; conditions: CMCC26003, read-out: MIC, 1. S. aureus (CMCC26003)
[10] = test system: Escherichia coli (CMCC44103); experiment: MIC, broth microdilution; conditions: CMCC44103, read-out: MIC, 5. E. coli (CMCC44103)
[11] = test system: Klebsiella pneumoniae (CMCC46117); experiment: MIC, broth microdilution; conditions: CMCC46117, read-out: MIC, 6. K. pneumoniae (CMCC46117)
[12] = test system: Escherichia coli (SYPB-3820) (multiple-resistant strain); experiment: MIC, broth microdilution; conditions: read-out: MIC, 7. E. coli (SYPB-3820) (multiple-resistant strain)
[13] = test system: Acinetobacter baumannii (ACCC11038); experiment: MIC, broth microdilution; conditions: read-out: MIC, 8. A. baumannii (ACCC11038)

CN[C@H](CC(C)C)C(=O)N[C@H]1C(=O)N[C@@H](CC(N)=O)C(=O)N[C@H]2C(=O)N[C@H]3C(=O)N[C@H](C(=O)N[C@H](C(=O)O)c4cc(O)cc(O)c4-c4cc3ccc4O)[C@H](O)c3ccc(c(Cl)c3)Oc3cc2cc(c3O[C@@H]2O[C@H](CO)[C@@H](O)[C@H](O)[C@H]2O[C@H]2C[C@](C)(N)[C@H](O)[C@H](C)O2)Oc2ccc(cc2Cl)[C@H]1O [Vancomycin]
MIC [1]: 1 µg/mL (≈ 0.69 µM)

Penetratin
Binding to genomic DNA (gel retardation) [2]: bound with the bacterial genomic DNA and blocked the migration | Binding to genomic DNA (gel retardation) [3]: bound with the bacterial genomic DNA and blocked the migration | Binding to genomic DNA (gel retardation) [4]: bound with the bacterial genomic DNA and blocked the migration

C[C@H]1COc2c(N3CCN(C)CC3)c(F)cc3c(=O)c(C(=O)O)cn1c23 [Levofloxacin]
MIC [5]: 0.06 µg/mL (≈ 0.166 µM) | Skin wound bacterial burden ([6]; day 10, E. coli (CMCC44103) infected wound, topical 100 μl at 8 × MIC twice a day, mean ± SD): (3.91 ± 2.87) × 10^3 CFU/g | Decrease of bacterial load ([6]; day 10 vs initial burden, E. coli (CMCC44103)): six | Wound healing (observation) ([6]; day 14, E. coli (CMCC44103) infected wound): basically completely healed | Skin wound bacterial burden ([7]; day 10, S. aureus (CMCC26003) infected wound, topical 100 μl at 8 × MIC twice a day, mean ± SD): (5.37 ± 2.89) × 10^3 CFU/g | Reduction of bacterial burden ([7]; day 10 vs initial burden, S. aureus (CMCC26003)): seven | Wound healing (observation) ([7]; day 14, S. aureus (CMCC26003) infected wound): basically completely healed | Skin wound bacterial burden ([8]; 10 days later, E. coli (SYPB-3820) infected wound, topical 100 μl at 8 × MIC twice a day, mean ± SD): (2.29 ± 3.78) × 10^4 CFU/g | Reduction of bacterial counts ([8]; day 10 vs initial burden, E. coli (SYPB-3820)): five | Wound healing (observation) ([8]; day 14, E. coli (SYPB-3820) infected wound): basically completely healed | MIC [9]: 0.12 µg/mL (≈ 0.332 µM) | MIC [10]: 0.03 µg/mL (≈ 0.083 µM) | MIC [11]: 0.03 µg/mL (≈ 0.083 µM) | MIC [12]: 8 µg/mL (≈ 22.1 µM) | MIC [13]: 0.06 µg/mL (≈ 0.166 µM)
